In data set [1] the test system is Caco-2 cell lysates. Description: Biological stability in Caco-2 cell lysates. The settings on record: individual compound 100 µM, HBSS pH 6, up to 24 h. In kind it is in vitro ADME, human. The protocol:
Caco-2 cells were cultured in T75 flasks at a seeding density of 2 × 10^6 cells/flask for 12–15 days. The cell lysate was freshly prepared by washing the cells twice with ice-cold HBSS at pH 6 (12 mL). The cells were then collected by scraping and resuspending in ice-cold HBSS at pH 6 (7.5 mL/flask). The cell suspension was vortexed and sonicated in an ice water bath for 30 min to obtain the lysate, which was kept on ice until use, and its cellular protein concentration was determined using a BCA™ protein assay kit (Thermo Fisher Scientific, Rockford, IL, USA) with bovine serum albumin as a reference standard.
Many phenolic compounds were subject to sulfation and glucuronidation by Caco-2 cells at concentrations higher than 20 μM [16, 21, 43] and the metabolites of GA, MG and PGG could not be observed in Caco-2 transport experiment. Therefore, the concentration of the standard pure compounds used in this study was higher than that used in the chemical stability experiment. After preparing the cell lysate, the test compounds were prepared by dissolution in HBSS at pH 6 and then added to the lysates for a final concentration of 1.08 mg/mL protein to obtain final individual concentrations of 100 μM for GA, MG and PGG and 0.75 mg/mL for MSKE, which is equivalent to concentrations of 55.12 ± 4.57 µM GA, 7.56 ± 0.85 µM MG and 110.02 ± 17.52 µM PGG. The mixtures were then incubated in a water bath at 37 °C for 24 h, and samples (50 µL for standard compounds, and 200 µL for MSKE) were collected at 0, 4, 6 and 24 h. Each sample was then added to an ice-cold 50% methanol (150 µL for GA, MG and PGG, and 600 µL for MSKE) to stop the reaction, vortexed and centrifuged at 15,500 rpm for 15 min, and the supernatant was injected into the UPLC for analysis.
The chemical and biological stabilities of the phenolic compounds were expressed as the concentration of the analyte at different time points relative to the concentration of the same analyte at time zero multiplied by 100 (% recovery).

The conditions of data set [2]: rat, in vivo, ip, 20 mg/kg; cited from earlier work.
For data set [3] the following is noted: mouse, in vivo, po, 80 mg/kg; cited from earlier work.
For data set [4], the system named is Caco-2 cells. The settings on record: cited from earlier work.

This is an account of results in article PMC6332320, “Factors Influencing Oral Bioavailability of Thai Mango Seed Kernel Extract and Its Key Phenolic Principles” (Molecules, 2015).

Usually Cmax stands for the peak of the concentration-time curve.

With `O=C(OC[C@H]1O[C@@H](OC(=O)c2cc(O)c(O)c(O)c2)[C@H](OC(=O)c2cc(O)c(O)c(O)c2)[C@@H](OC(=O)c2cc(O)c(O)c(O)c2)[C@@H]1OC(=O)c1cc(O)c(O)c(O)c1)c1cc(O)c(O)c(O)c1` [PGG, Pentagalloylglucopyranose], the “stability in HBSS at pH 6 (blank control)” value in data set [1] is “stable in HBSS at pH 6 for 6 h and slightly degraded within 24 h”. Further, in data set [2], the Cmax was 6 µM. In addition, in data set [3], the “plasma PGG levels” value was “below the limit of detection”. Further, in data set [4], the “Papp AB” value is 0.08 ± 0.03 × 10^−6 cm/s.
